Test results: US20040210184A1, “Effect of electric field and ultrasound for transdermal drug delivery” (Massachusetts Institute of Technology, priority 1995, published 2004)

Columns and labels:
[1] = Stability of the molecules under electroporating conditions and temperature, measured by fluorescence; type: physicochemical; conditions: 1 mM solutions under electroporating conditions
Experimental: In order to assess the stability of these molecules during electroporation, calcein and sulphorhodamine solutions (1 mM each) were exposed to electroporating conditions similar to those used in this study. No difference between the intensity of their fluorescence before and after exposure to electric fields could be detected. In addition, these molecules are stable up to a temperature of 100° C. (measured in terms of fluorescence).

[2] = human, 1 mM, pH 7.4
Experimental: Full thickness of human cadaver skin (obtained from local hospitals) was heat stripped by immersion in 60° C. water for two minutes followed by the removal of the epidermis. The skin was then stored in a humidified chamber (95% relative humidity) at 4° C. The heat-stripped human epidermis was placed in a custom-made side-by-side permeation chamber, skin area of 0.64 cm^2, designed to adapt an ultrasound transducer at the donor side. The donor compartment was filled with a 1 mM solution of calcein (MW 623, electric charge—4; Sigma Chemicals) (CA) and 1 mM sulphorhodamine (MW 607, electric charge—1; Sigma Chemical) (SR) in 150 mM Phosphate Buffer Saline (PBS; Sigma Chemicals).
The ultrasound probe was inserted into the donor compartment. […]
The fluorometer was set up for dual wavelength measurements (excitation wavelength=488 nm, emission wavelength=515 nm (calcein), and excitation wavelength =586 nm, emission wavelength=607 nm (sulphorhodamine)). […] Transdermal calcein and sulphorhodamine flux was calculated from the fluorescence readings by taking into account parameters such as flow rate, receiver compartment volume, and fluorometer caveat volume. The effluent from the receptor compartment was pumped through a spectrofluorometer (Fluorolog-II-system F112AI SPEX-industries, Edison, N.J.) where the fluorescence of calcein and sulphorhodamine was separately measured twice every minute. […]

[3] = type: in vitro ADME
Excerpt: Passive experiments without ultrasound with polyethylene glycol 200 dilaurate (PEG), isopropyl myristate (IM), and glycerol trioleate (GT) result in corticosterone flux enhancement values of only 2, 5, and 0.8, relative to the passive flux from PBS alone. […] These passive flux enhancements were due to (1) the increased corticosterone solubility in the enhancers, and (2) interactions of linoleic acid with the skin. Specifically, linoleic acid increased the corticosterone permeability by nearly 20-fold over that from 50% ethanol alone. […] Ultrasound combined with 50% ethanol produces a 2-fold increase in corticosterone transport above the passive case, but increase by 14-fold the transport from LA/Ethanol.

[4] = ethanol as chemical enhancer; cited from earlier work

## O=C(O)CN(CC(=O)O)Cc1cc2c(cc1O)Oc1cc(O)c(CN(CC(=O)O)CC(=O)O)cc1C21OC(=O)c2ccccc21 [calcein]
[1]
  difference in fluorescence intensity before and after exposure to electric fields: No difference
[2]
  enhancement: amount transported in the presence of ultrasound-electric field pulsing to that in the presence of electric field pulsing alone: 2

## C[C@]12C[C@H](O)[C@H]3[C@@H](CCC4=CC(=O)CC[C@@]43C)[C@@H]1CC[C@@H]2C(=O)CO [corticosterone]
[3]
  flux: 0.16 mg/cm^2/hr
  flux relative to that from PBS alone: 13,000 fold
  flux with ultrasound relative to the passive flux from the same enhancers: 1.3-5.0
  permeability increase by linoleic acid over that from 50% ethanol alone: ~20 fold

## O=S(=O)([O-])c1cc(S(=O)(=O)O)ccc1C1=c2cc3c4c(c2Oc2c1cc1c5c2CCCN5CCC1)CCC[N+]=4CCC3 [sulphorhodamine]
[1]
  difference in fluorescence intensity before and after exposure to electric fields: No difference

## C[C@]12CC[C@@H]3c4ccc(O)cc4CC[C@H]3[C@@H]1CC[C@@H]2O [estradiol]
[4]
  flux increase by ethanol: 140 fold
